Assay results: US20050191348A1 (priority 2004, published 2005)
Marks after values point to notes of the source that are not given here.

What was measured:
PC12 cells [1] = assay: Cell death under serum deprivation (apoptotic cell death detection ELISA), PC12; type: cell-based, rat; details: PC12, 24 h serum deprivation, significant at 1 and 10 μM
Procedure: Two different neuronal cell lines were used: the rat PC12 and the human neuroblastoma SH-SY5Y cells.
PC12 cells, originated from rat pheochromocytoma, were grown to confluence in T75 flasks containing DMEM (1000 mg/l glucose) and supplemented with 5% FCS, 10% horse serum, and a mixture of 1% of penicillin/streptomycin/nystatin.
Cell cultures were incubated at 37° C. in a humid 5% CO2-95% air environment. For cell viability assays, cells were treated with various drugs in serum free media containing 0.1% BSA.
In order to test cell viability, PC12 cells and SH-SY5Y neuroblastoma cels were incubated under serum deprivation and were untreated or treated with rasagiline (0.1. 1 or 10 μM) for 24 hours.

sAPPα = sAPPα release into medium of SH-SY5Y neuroblastoma cells; type: cell-based, human; details: 1 μM, 3 h, SH-SY5Y conditioned media, mean ± SE of three experiments
Procedure: For the experiments, cells were seeded (2×10^6) onto 100-mm plates (for SH-SY5Y cells) or T75 flasks (for PC12 cells) in culture medium supplemented with full serum for 48 h. The cells were replaced with fresh medium containing 0.5% FCS for an additional 24 h (subconfluent culture), and then the experiments were performed in fresh medium containing 0.5% FCS for the indicated time periods at 37° C. After incubation with various drugs, the conditioned media were collected, centrifuged at 3500 g (10 min, 4° C.) to remove cell debris, and the cleared supernatants were concentrated 10-fold by lyophilization.
(vii) Determination of sAPP. Protein concentrations of cell lysates were assayed using Bradford reagent (Sigma Chemical). Equal amounts of volumes of conditioned medium, standardized to lysate protein, were subjected to […], using either the MAbs 22C11 or 6E10 in 50 mM Tris-HCl, pH 7.4, 150 mM NaCl, containing 0.05% Tween 20 and 1% BSA. Immunoreactivity was detected using anti-mouse IgG-conjugated with HRP and an enhanced chemiluminescence method (Amersham, Pharmacia Biotech, UK). Blots were developed for different times to span a linear range of response, and the relative intensity of immunoreactive bands on the exposed films was quantified by computer-assisted densitometry program (Quantity One, Bio-Rad, Hercules, Calif., USA).
It was of interest to determine whether rasagiline and other propargylamine-containing drugs also regulate APP processing. For this purpose, SH-SY5Y neuroblastoma cells were incubated for 3 h without or with 1 μM of various drugs (TV3326 and its S-isomer TV3279, rasagiline and its S-isomer TVP1022, selegiline, aminoindan), and sAPPα was measured in the media as described in Materials and Methods.
We further characterized, in detail, the effect of rasagiline on APP processing and the signaling pathways that are involved. Thus, SH-SY5Y neuroblastoma cells were incubated for 3 h without or with increasing concentrations of rasagiline (0.1, 1 and 10 μM), and sAPPα was measured in the media as described in Materials and Methods.
For the sAPPα release, SH-SY5Y neuroblastoma cells or PC12 cells were incubated for 3 h without or with increasing concentrations of propargylamine (0.1, 1 and 10 μM), and sAPPα was measured in the media as described in Materials and Methods.

PC12 cells [2] = details: PC12, Aβ1-42 10 μM 24 h
MAO = details: Youdim et al., 2001b; cited from earlier work

## C#CCN[C@@H]1CCc2ccccc21 [TVP1022]
PC12 cells [1]
  cell death induced by serum deprivation: protected serum deprived PC12 cells from apoptosis
sAPPα
  sAPPα secretion (fold/basal): 2.43 ± 0.27^c fold/basal
PC12 cells [2]
  protection against Aβ1-42 neurotoxicity: protected PC12 cells from Aβ-evoked apoptosis
MAO
  fold weaker as an inhibitor of MAO than rasagiline: at least 1000 fold
